Measurements: ChEMBL document CHEMBL1153024, “Antibacterial diterpenes from Plectranthus ernstii” (2009)
Converted amounts (≈) assume the structure as drawn. The source made the active and inactive calls. The calls are words filed in the database; no cut-off is given here.

What was measured:
[1] = system: Mycolicibacterium fortuitum; experiment: Antibacterial activity against Mycobacterium fortuitum after 72 hrs; type: functional
[2] = system: Staphylococcus aureus; experiment: Antibacterial activity against Staphylococcus aureus ATCC 25923 at 128 ug/ml after 24 hrs; type: functional, organism-based
[3] = system: Mycolicibacterium phlei; experiment: Antibacterial activity against Mycobacterium phlei after 72 hrs; type: functional
[4] = system: Mycolicibacterium smegmatis; experiment: Antibacterial activity against Mycobacterium smegmatis after 72 hrs; type: functional
[5] = system: Staphylococcus aureus; experiment: Antibacterial activity against Staphylococcus aureus EMRSA-15 at 128 ug/ml after 24 hrs; type: functional, organism-based
[6] = system: Staphylococcus aureus; experiment: Antibacterial activity against Staphylococcus aureus RN4220 overexpressing MsrA at 128 ug/ml after 24 hrs; type: functional, organism-based
[7] = system: Staphylococcus aureus; experiment: Antibacterial activity against Staphylococcus aureus 1199B overexpressing NorA at 128 ug/ml after 24 hrs; type: functional, organism-based
[8] = system: Staphylococcus aureus; experiment: Antibacterial activity against Staphylococcus aureus XU-212 overexpressing TetK, mecA at 128 ug/ml after 24 hrs; type: functional, organism-based
[9] = system: Staphylococcus aureus; experiment: Antibacterial activity against Staphylococcus aureus XU-212 overexpressing TetK, mecA after 24 hrs; type: functional; details: XU-212, 24 h
[10] = system: Staphylococcus aureus; experiment: Antibacterial activity against Staphylococcus aureus EMRSA-15 after 24 hrs; type: functional; details: EMRSA-15, 24 h
[11] = system: Staphylococcus aureus; experiment: Antibacterial activity against Staphylococcus aureus 1199B overexpressing NorA after 24 hrs; type: functional
[12] = system: Staphylococcus aureus; experiment: Antibacterial activity against Staphylococcus aureus RN4220 overexpressing MsrA after 24 hrs; type: functional; details: RN4220, 24 h
[13] = system: Staphylococcus aureus; experiment: Antibacterial activity against Staphylococcus aureus ATCC 25923 after 24 hrs; type: functional; details: ATCC 25923, 24 h

Structure (SMILES): C=C[C@@]1(C)C[C@H](O)[C@@H]2[C@@]3(C)[C@H](O)CCC(C)(C)[C@@H]3CC[C@@]2(C)O1
- MIC [1]: 128 µg/mL (≈ 397 µM)
- MIC [2]: inactive
- MIC [3]: 128 µg/mL (≈ 397 µM)
- MIC [4]: 128 µg/mL (≈ 397 µM)
- MIC [5]: inactive
- MIC [6]: inactive
- MIC [7]: inactive
- MIC [8]: inactive

Structure (SMILES): CC1(C)CCC[C@]2(C)[C@H]3CC[C@](C)(C4CO4)C=C3C(=O)C[C@@H]12 (relative stereo)
- MIC [1]: 128 µg/mL (≈ 423 µM)
- MIC [2]: inactive
- MIC [3]: 64 µg/mL (≈ 212 µM)
- MIC [4]: 128 µg/mL (≈ 423 µM)
- MIC [5]: inactive
- MIC [6]: inactive
- MIC [7]: inactive
- MIC [8]: inactive

Structure (SMILES): CC1(C)CCC[C@]2(C)[C@H]3CC[C@](C)(C4CO4)C=C3[C@H](O)C[C@@H]12 (relative stereo)
- MIC [9]: 32 µg/mL (≈ 105 µM)
- MIC [1]: 16 µg/mL (≈ 52.5 µM)
- MIC [10]: 32 µg/mL (≈ 105 µM)
- MIC [3]: 8 µg/mL (≈ 26.3 µM)
- MIC [11]: 32 µg/mL (≈ 105 µM)
- MIC [12]: 32 µg/mL (≈ 105 µM)
- MIC [4]: 16 µg/mL (≈ 52.5 µM)
- MIC [13]: 32 µg/mL (≈ 105 µM)

Structure (SMILES): CC[C@H]1OC(=O)[C@H](C)[C@@H](O[C@H]2C[C@@](C)(OC)[C@@H](O)[C@H](C)O2)[C@H](C)[C@@H](O[C@@H]2O[C@H](C)C[C@H](N(C)C)[C@H]2O)[C@](C)(O)C[C@@H](C)C(=O)[C@H](C)[C@@H](O)[C@]1(C)O [ERYTHROMYCIN]
- MIC [12]: 128 µg/mL (≈ 174 µM)

Structure (SMILES): CC[C@@H](CO)NCCN[C@@H](CC)CO [ETHAMBUTOL]
- MIC [1]: 4 µg/mL (≈ 19.6 µM)
- MIC [3]: 2 µg/mL (≈ 9.79 µM)
- MIC [4]: 0.5 µg/mL (≈ 2.45 µM)

Structure (SMILES): CCn1cc(C(=O)O)c(=O)c2cc(F)c(N3CCNCC3)cc21 [NORFLOXACIN]
- MIC [10]: 2 µg/mL (≈ 6.26 µM)
- MIC [11]: 32 µg/mL (≈ 100 µM)
- MIC [13]: 0.5 µg/mL (≈ 1.57 µM)

Structure (SMILES): CN(C)[C@@H]1C(O)=C(C(N)=O)C(=O)[C@@]2(O)C(O)=C3C(=O)c4c(O)cccc4[C@@](C)(O)[C@H]3C[C@@H]12 [TETRACYCLINE]
- MIC [9]: 128 µg/mL (≈ 288 µM)
